PubChem BioAssay (NCI)
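Exposure lasted 48 hours, with cells grown in 96-well plates and compounds tested at five concentrations. TGI denotes the concentration required for complete inhibition of growth.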 Where a SMILES comes first, the peptide text is derived from it. The star is where a group is joined. Cbz = O=C(OCc1ccccc1)*

Legend:
Experiment in all cases: NCI tumour cell line growth inhibition, 48 h
SF-268 CNS = system: SF-268 CNS
IGROV1 ovarian = system: IGROV1 ovarian
EKVX NSCLC = system: EKVX NSCLC
SR leukemia = system: SR leukemia
KM12 colon = system: KM12 colon
HOP-62 NSCLC = system: HOP-62 NSCLC
A498 renal = system: A498 renal
HT29 colon = system: HT29 colon
NCI-H23 lung = system: NCI-H23 lung
NCI-H522 lung = system: NCI-H522 lung
MDA-N = system: MDA-N
T-47D breast = system: T-47D breast
SN12C renal = system: SN12C renal
A549 NSCLC = system: A549 NSCLC
SK-OV-3 ovarian = system: SK-OV-3 ovarian

Structure (SMILES)	TGI (SF-268 CNS) [µM]	TGI (IGROV1 ovarian) [µM]	TGI (EKVX NSCLC) [µM]	TGI (SR leukemia) [µM]	TGI (KM12 colon) [µM]	TGI (HOP-62 NSCLC) [µM]	TGI (A498 renal) [µM]	TGI (HT29 colon) [µM]	TGI (NCI-H23 lung) [µM]	TGI (NCI-H522 lung) [µM]	TGI (MDA-N) [µM]	TGI (T-47D breast) [µM]	TGI (SN12C renal) [µM]	TGI (A549 NSCLC) [µM]	TGI (SK-OV-3 ovarian) [µM]
O/N=C1\CCc2cc3c(cc21)CCC3	> 100	> 100	> 100	> 100	> 100	> 100	> 100	> 100	> 100	> 100	> 100	> 100	> 100	> 100	> 100
CC(=O)N1N=C(c2c(O)ccc3ccccc23)CC1c1ccc(Cl)cc1 (configuration not stated)	> 100	63.9		28.3	29.9	37	66.3	69.5	46.5	> 100	40.5	> 100	39.3	> 100	> 100
CN1CCN(CCCCN2c3ccccc3Sc3ccc(N=[N+]=[N-])cc32)CC1	28.2	23.3	29.4	7.07	20.8	33.8	29.9	4.59	35.7	13.6	6.96	36.2	26.1	29.3	
COc1cc(C2(O)c3ccccc3C3=NCCN32)cc(OC)c1OC (configuration not stated)	> 100			> 100	> 100	> 100	> 100	> 100	> 100		> 100	> 100	> 100	> 100	> 100
COC(=O)CCC(C)C1CCC2C3CCC4CC5CCC4(C)C3(O5)C(Br)C(Br)C12C (configuration not stated)	> 100	> 100	> 100	> 100	> 100	> 100	> 100	> 100	> 100	> 100	> 100	> 100	> 100	> 100	> 100
CCN1C[C@]2(C)CC[C@H](OCc3ccccc3)C34C5C[C@@H]6CC[C@](O)(C(C[C@@H]32)C14)C5[C@H]6OCc1ccccc1 (some centres not stated)	> 100	> 100	> 100	> 100	> 100	> 100	> 100	> 100	> 100		> 100	> 100	> 100	> 100	> 100
O=[N+]([O-])/C=C/COCc1cc2c(cc1Br)OCO2	41.4	> 100	48.8	54.1	33.8	41.9	86.4	45.4		50.7	32.8	41.6	35.7	38.5	> 100
CC(=O)OCC1OC(n2c(C)c(C(C)=O)c(-c3cccc4ccccc34)c(C#N)c2=S)C(OC(C)=O)C(OC(C)=O)C1OC(C)=O (configuration not stated)	> 100	> 100	> 100	> 100	> 100	> 100	> 100	> 100	> 100	> 100	> 100	> 100	> 100	> 100	> 100
O=S1c2ccccc2SCSc2ccccc21	> 100			91.1	> 100	> 100	> 100	> 100	> 100	> 100	> 100	> 100	> 100	> 100	> 100
CCOC(=O)C(CC(=O)OC)NC(=O)C(CC(=O)OC)NC(=O)C(CC(=O)OC)NC(=O)C(CC(=O)OC)NC(=O)OCc1ccccc1 (configuration not stated) (Cbz-D(OMe)D(OMe)D(OMe)D(OMe)-OEt; configuration not given here)		> 100	> 100	> 100	> 100	> 100	> 100	> 100	> 100		> 100	> 100	> 100	> 100	
O=C(CC(C(=O)c1cccs1)c1ccsc1)c1ccco1 (configuration not stated)	74.2	> 100	> 100	> 100	42.7	> 100	64	29.7	49.7	54.1	> 100	80.3	> 100	42.9	> 100
N#C/C(=C\c1ccc(Br)cc1)c1nc(-c2cc3ccccc3oc2=O)cs1	> 50	> 50	> 50	> 50	> 50	20.1		> 50		16.1	> 50	> 50	> 50	> 50	> 50
CN(C)CCNC(=O)c1cc(-c2nccn2C)nc2ccccc12	> 100	> 100	> 100	> 100	> 100	> 100	> 100	> 100	> 100	> 100	> 100	> 100	> 100	> 100	
Cc1cc(-c2nc3cc(O)ccc3s2)ccc1N	> 100	> 100	60.1	> 100	66.6	> 100	61.7	50.7	> 100	> 100	> 100	72.3	74.2	> 100	77.1
COc1cc(-c2oc(C=Nc3ccccc3)c([N+](=O)[O-])c2-c2ccc(O)c(OC)c2)ccc1O	73.7	52.5	> 73.9	9.8	> 85.4	> 100		> 55.9	33.9	30.2	> 85.7	> 100	> 74.4	> 87.2	> 64.7
C/C(=N/NC(=S)NCCc1ccccn1)c1cnccn1	> 100	> 100	> 100	65.9	> 100	> 100		> 100	> 100	> 100	> 100	> 100	74.7	> 100	70.5

Structure (SMILES)	TGI (SF-268 CNS) [µM]	TGI (IGROV1 ovarian) [µM]	TGI (EKVX NSCLC) [µM]	TGI (SR leukemia) [µM]	TGI (KM12 colon) [µM]	TGI (HOP-62 NSCLC) [µM]	TGI (A498 renal) [µM]	TGI (HT29 colon) [µM]	TGI (NCI-H23 lung) [µM]	TGI (NCI-H522 lung) [µM]	TGI (MDA-N) [µM]	TGI (T-47D breast) [µM]	TGI (SN12C renal) [µM]	TGI (A549 NSCLC) [µM]	TGI (SK-OV-3 ovarian) [µM]
CN(C)c1ccc(N=Nc2cccc3ncccc23)cc1	> 100	> 100	> 100	> 100	> 100	> 100		> 100	> 100	> 73.8	> 100	> 100	> 100	> 100	> 100
[O-]c1c[n+](CC[n+]2cc([O-])on2)no1	> 100	> 100	> 100	> 100	> 100	> 100	> 100	> 100	> 100	> 100	> 100	> 100	> 100	> 100	> 100
CCOC(=O)C(=CNC(=S)Nc1c(CC)cccc1CC)C(=O)OCC	> 100	> 100	> 100	> 100	> 100	> 100	> 100	> 100	> 100	> 100	> 100	> 100	> 100	> 100	> 100
CC(C)(C)N(Cc1ccoc1)C(=O)/C=C\S(=O)c1ccccc1 (configuration not stated)	> 100	32.9	75.5	77.8	34.5	36.6	68.1	97.7	32.3	40.5	44.2	38.2	58.5	> 100	77.6
CC(C)c1ccc2[nH]c(O)c(C3=Nc4ccccc4C3=O)c2c1	> 100	65.8	42.8	54.5	> 100	21	5.5	> 100	> 100	97	> 100	17.2	> 100	> 100	30.2
Cc1ccc(CCCCCOc2ccc(C3=NCCO3)cc2)s1	> 100	> 100	> 100	> 100	> 100	> 100	4.47	> 100	> 100	> 100	62.6	> 100	> 100	> 100	> 100
[C-]#[N+]C1(C(=O)OCC)CC1	> 100	> 100	> 100	> 100		> 100	> 100	> 100	> 100	> 100	> 100	> 100	> 100	> 100	
COC(=O)/C(=C\c1cn(C(C)=O)c2ccccc12)P(=O)(OC)OC	54	44.9	38	> 100		28.8	31.4	29.7	30.2	23.2	32.4	33.1	28	35.8	39.2
Nc1cccc(C#Cc2cccc(C#Cc3cccc(N)n3)n2)n1	> 100	> 100	> 100	> 100	> 100	> 100	> 100		> 100	> 100	> 100	> 100	> 100		> 100
CC1=NN(C(=O)c2ccccc2O)C(c2ccccc2Cl)C1C(=O)Nc1ccccc1 (configuration not stated)	30.8	> 32.4	> 100	> 100	> 100	> 100		> 100	> 100	0.692	> 100	> 100	> 44.8	> 100	> 100
NS(=O)(=O)c1nnc(/N=C(/CCC(=O)O)C(=O)O)s1		> 100	> 100	> 100	> 100	> 100	> 100	> 100	> 100	> 100	> 100	> 100	> 100	> 100	> 100
Cc1csc2nc3[nH]ncc3c(=O)n12	> 100	> 100	> 100	> 100	> 100	> 100		> 100	> 100	> 100	> 100	> 100	> 100	> 100	> 100
CC(C)(C)[Si](C)(C)OCC#C[C@@]1(O)CCCCC1CC(Sc1ccccc1)Sc1ccccc1 (some centres not stated)		33.3	30	57.4	63.8	31.4	30.4	27	36.1	26.8	37.7	25.5	23.8	28	34.4
COc1ccc2nc3ccc(OC)cc3c(SCC3CO3)c2c1 (configuration not stated)	31.6		34.2	80.4	34.4	> 100	> 100		35.4	33.2	30.6	43.6	27.4	> 100	> 100
CCOC(=O)c1nc2ccccc2nc1Oc1ccc(OC)cc1	> 100	> 100	> 100	> 100	> 100	> 100	> 100	> 100		> 100	> 100	> 100	> 100	> 100	> 100
COc1ccc(/C(C)=N/NC(=O)c2ccncc2)cc1OC	> 10	> 10		> 10	> 10	> 10	> 10		> 10		> 10	> 10	> 10	> 10	> 10
